Assay results reported in US4124598A, “Psoralens” (Hoffmann-La Roche Inc., priority 1976, dated 1978).
Like-named read-outs stand apart in the source and are kept apart here.

Experiments:
[1] = Hydrolysis in aqueous solution; type: physicochemical
[2] = test system: Calf thymus DNA; experiment: Equilibrium dialysis, non-covalent binding to DNA; conditions: for (PS)/(S) for DNA in Saturated Solution: occupied/unoccupied binding sites
Experimental: (§1) In order to establish the dissociation constants from DNA and RNA, the non-covalent binding was ascertained. Non-covalent binding determines the presence of the psoralen within the nucleic acid helix. Its presence is determined in the absence of any radiant energy. As noted before, radiant energy is necessary to activate the psoralen covalent binding reaction with nucleic acid base pairs.
(§2) To determine the non-covalent binding, Calf thymus DNA (Sigma Type I) was dissolved in a 0.01 M Tris 0.001 M EDTA pH 8.5 buffer at a concentration of 25 ug/ml. A quantity of this DNA solution was placed in a dialysis bag (pretreated by boiling in NaHCO3), and the various tritiated derivatives were added inside the bag in half the cases and outside the bag in the other half. The molar ratio of psoralen molecules to base pairs was approximately 1:25. The bags were placed in vials filled with 18 ml of buffer and put on a shaker for 48-60 hours. After this period, radioactivity was determined both inside and outside the bags and the optical density of the DNA solution measured. From this information, and the specific activity of each derivative, the amount of drug non-covalently bound to the DNA was determined. Binding of the derivatives to Drosophila melanogaster ribosomal RNA was measured in exactly the same manner.
(§3) The units of the dissociation constants are moles/liter. Solubilities and molar extinction coefficients (ε) were obtained in pure water, the equilibrium constants (KD) in 0.01 M Tris.

[3] = target: Drosophila melanogaster ribosomal RNA; experiment: Equilibrium dialysis, non-covalent binding to RNA
Experimental: as §1, §2, §3

[4] = Solubility in pure water; type: physicochemical; conditions: pure water
Description: In order to study solubilities and dissociation constants, it is most convenient to prepare tritiated derivatives of the psoralen compounds. Thus, well-known radiation counting methods may be utilized to monitor the presence of the psoralens in solutions, or in nucleic acids.
as §3

[5] = Molar extinction coefficient in pure water; type: physicochemical
Description: as §3

[6] = test system: DNA (calf thymus); experiment: Low intensity photoaddition (covalent binding) to DNA; conditions: for A (footnote 1, shown as drawing 9) / B = percent of added psoralen covalently bound: 25 μg/ml DNA, psoralen:base pair 1:3
Experimental: (§4) The covalent binding of the psoralens to DNA and RNA was studied. To achieve covalent binding, it is necessary to supply radiant energy (light) to the binding sites. These studies were carried out as follows:
(§5) The DNA and RNA used in the covalent binding studies have been described previously. Samples of each nucleic acid were prepared at a concentration of 25 ug/ml in 0.01 m Tris 0.001 M EDTA buffer. The radioactive-psoralen derivatives were added in a ratio of one psoralen for every three base pairs. The irradiation was carried out in one of the two following devices.
The low intensity irradiations were performed with a modified slide projector which was fitted with a 400 watt General Electric mercury vapor lamp (H 400 A 33-1/T16). The image of the arc was focused on the same cell, jacketed by a cobaltous nitrate solution which was also used for the high intensity irradiations. The light intensity delivered to the sample in this device was 4 to 6 mw/cm^2. The high intensity irradiations were carried out in a device containing two of the sam 400 watt General Electric mercury vapor lamps which were mounted on either side of a double walled sample chamber at a distance between centers of 4.0 cm. The chamber was cooled to 10° C. by continuous circulation of a temperature regulated solution of cobaltous nitrate (40% w/w). The cobalt solution served as an ultraviolet filter which allowed a maximum transmittance of 365 nm light and a window from approximately 340-380 nm. The intensity of the light at the surface of the inner sample chamber was approximately 100 mw/cm^2. The nucleic acid-psoralen mixture was placed in the inner chamber where it was continuously stirred throughout the irradiation. […] Each aliquot was then extracted twice with chloroform/iso-amyl alcohol (24:1) to remove unreacted psoralen followed by exhaustive dialysis against 0.01 M Tris, 0.001 M EDTA buffer. The successful extraction of unbound psoralen by the chloroform-isoamyl alcohol required the aqueous phase to be at least 0.15 M in NaCl. Finally, the optical density of the nucleic-acid psoralen mixture was taken and its radioactivity determined, thus giving the amount of derivative covalently bound to the DNA or RNA. Taking samples, at spaced time intervals also permitted an assessment of the kinetics of the covalent binding.

[7] = test system: DNA (calf thymus); experiment: High intensity photoaddition (covalent binding) to DNA; conditions: 25 μg/ml DNA, psoralen:base pair 1:3
Experimental: as §4, §5
(§6) The low intensity irradiations were performed with a modified slide projector which was fitted with a 400 watt General Electric mercury vapor lamp (H 400 A 33-1/T16). The image of the arc was focused on the same cell, jacketed by a cobaltous nitrate solution which was also used for the high intensity irradiations. The light intensity delivered to the sample in this device was 4 to 6 mw/cm^2. The high intensity irradiations were carried out in a device containing two of the sam 400 watt General Electric mercury vapor lamps which were mounted on either side of a double walled sample chamber at a distance between centers of 4.0 cm. The chamber was cooled to 10° C. by continuous circulation of a temperature regulated solution of cobaltous nitrate (40% w/w). The cobalt solution served as an ultraviolet filter which allowed a maximum transmittance of 365 nm light and a window from approximately 340-380 nm. The intensity of the light at the surface of the inner sample chamber was approximately 100 mw/cm^2. The nucleic acid-psoralen mixture was placed in the inner chamber where it was continuously stirred throughout the irradiation. Aliquots of each solution (derivative plus nucleic acid) were taken at 20, 40 and 60 minutes. Each aliquot was then extracted twice with chloroform/iso-amyl alcohol (24:1) to remove unreacted psoralen followed by exhaustive dialysis against 0.01 M Tris, 0.001 M EDTA buffer. The successful extraction of unbound psoralen by the chloroform-isoamyl alcohol required the aqueous phase to be at least 0.15 M in NaCl. Finally, the optical density of the nucleic-acid psoralen mixture was taken and its radioactivity determined, thus giving the amount of derivative covalently bound to the DNA or RNA. Taking samples, at spaced time intervals also permitted an assessment of the kinetics of the covalent binding.

[8] = test system: RNA (Drosophila melanogaster ribosomal RNA); experiment: High intensity photoaddition (covalent binding) to RNA; conditions: 25 μg/ml RNA, psoralen:base pair 1:3
Experimental: as §4, §5, §6

[9] = test system: vesicular stomatitis virus; type: cell-based, Vesicular stomatitis virus Indiana strain; conditions: high dose rates, e.g., 30 μg/ml
[10] = test system: DNA; experiment: Reactivity with DNA (general statement); type: binding, calf
Experimental: as §4, §5
as §6, with “Each aliquot was then extracted twice with chloroform/iso-amyl alcohol (24:1) to remove unreacted psoralen followed by exhaustive dialysis against 0.01 M Tris, 0.001 M EDTA buffer. The successful extraction of unbound psoralen by the chloroform-isoamyl alcohol required the aqueous phase to be at least 0.15 M in NaCl.” left out, “Taking samples, at spaced time intervals also permitted an assessment of the kinetics of the covalent binding.” left out

[11] = test system: Calf thymus DNA; conditions: calculated from literature results, cited from earlier work
[12] = target: Drosophila melanogaster ribosomal RNA; conditions: calculated from literature results, cited from earlier work
[13] = calculated from literature results, cited from earlier work
[14] = 0.01 M Tris, non-covalent binding

In the case of Cc1oc2c(C)c3oc(=O)cc(C)c3cc2c1CCl [4'-chloromethyl-4,5',8-trimethyl psoralen], the “hydrolysis of the chloromethyl substituent in aqueous solution” value [1] is reported as “readily hydrolysed in aqueous solution”.

For Cc1oc2c(C)c3oc(=O)cc(C)c3cc2c1CO [4'-hydroxymethyl-4,5',8-trimethyl psoralen], the Kd [2, 14] was 290 µM, the “DNA site saturation, one psoralen per base pairs” value ([2]; saturated solution, expected from KD and solubility) was “one psoralen per three base pairs” and the “(PS)/(S) for DNA in Saturated Solution” value ([2]; saturated solution) was 0.55. The “(PS)/(S) for DNA in Saturated Solution” value ([2]; saturated solution, listed as 4'-hydroxmethyl trioxsalen) was 0.5, the “times more strongly binding to DNA than methoxsalen” value ([2]; vs methoxsalen) was 10 times and the Kd [3, 14] was 1 mM. For the same compound, the “(PS)/(S) for RNA in Saturated Solution” value ([3]; saturated solution, occupied/unoccupied binding sites) was 0.16, the solubility [4] was 41 µg/mL and the solubility ([4]; molar) was 160 µM. The “Extinction coefficient ε, 250 nm” value [5] was 25000 L/mol/cm, the “A (footnote 1, shown as drawing 9)” value ([6]; 5 min irradiation) was 89.0 and the “B = percent of added psoralen covalently bound” value ([6]; 5 min irradiation) was 3.0%. The “A (footnote 1, shown as drawing 9)” value ([6]; 10 min irradiation) was 59.6, the “B = percent of added psoralen covalently bound” value ([6]; 10 min irradiation) was 4.6% and the “A (footnote 1, shown as drawing 9)” value ([6]; 30 min irradiation) was 26.0. For the same compound, the “B = percent of added psoralen covalently bound” value ([6]; 30 min irradiation) was 10.3%, the “A (footnote 1, shown as drawing 9)” value ([6]; 60 min irradiation) was 19.5 and the “B = percent of added psoralen covalently bound” value ([6]; 60 min irradiation) was 13.8%. For the same compound, the “A (footnote 1, shown as drawing 9)” value ([6]; 90 min irradiation) was 17.2, the “B = percent of added psoralen covalently bound” value ([6]; 90 min irradiation) was 15.7% and the “moles of psoralen bound per mole of base pairs” value ([6]; 90 minutes irradiation) was 0.06 moles per mole of base pairs. The “remains free in the solution” value ([6]; after 90 minutes of irradiation) was “more than 80%”, the “A (footnote 1, shown as drawing 10)” value ([7]; 20 min irradiation) was 9.1 and the “B = percent of added psoralen covalently bound” value ([7]; 20 min irradiation) was 33.0%. The “A (footnote 1, shown as drawing 10)” value ([7]; 40 min irradiation) was 9.2, the “B = percent of added psoralen covalently bound” value ([7]; 40 min irradiation) was 32.6% and the “A (footnote 1, shown as drawing 10)” value ([7]; 60 min irradiation) was 9.1. For the same compound, the “B = percent of added psoralen covalently bound” value ([7]; 60 min irradiation) was 33.0%, the “A (footnote 1, shown as drawing 11)” value ([8]; 20 min irradiation) was 26.3 and the “B = percent of added psoralen covalently bound” value ([8]; 20 min irradiation) was 11.5%. For the same compound, the “A (footnote 1, shown as drawing 11)” value ([8]; 40 min irradiation) was 24.8, the “B = percent of added psoralen covalently bound” value ([8]; 40 min irradiation) was 12.1% and the “A (footnote 1, shown as drawing 11)” value ([8]; 60 min irradiation) was 23.5. For the same compound, the “B = percent of added psoralen covalently bound” value ([8]; 60 min irradiation) was 13.0%, the “effectiveness in inactivation of vesicular stomatitis virus vs 4,5',8-trimethyl psoralen” value [9] was “nearly one thousand times more effective” and the “reactivity with DNA” value [10] was “excellent reactivity with DNA”.

For COc1c2occc2cc2ccc(=O)oc12 [8-methoxypsoralen, 8-methoxy psoralen], the “one psoralen per n base pairs at equilibrium (best achievable)” value ([2]; saturated solution) is listed as about 20 base pairs, the “Extinction coefficient ε, 250 nm” value [5] is listed as 19000 L/mol/cm and the Kd [11] is listed as 2.5 mM. The “(PS)/(S) for DNA in Saturated Solution” value ([11]; saturated solution) was 0.068, the Kd [12] was 17 mM and the “(PS)/(S) for RNA in Saturated Solution” value ([12]; saturated solution) was 0.010. For the same compound, the solubility [13] was 36 µg/mL and the solubility ([13]; molar) was 170 µM.
